Test results: ChEMBL document CHEMBL1201862, “PubChem BioAssay data set” (2004)
One block for each molecule: values may come before it. Activity calls are given as the source filed them.

What was measured:
[1] = A2780 ovarian cancer cell cytotoxicity, dose response, cytotoxicity control, plate reader, dry powder samples (AID 743046); type: functional, cell-based
[2] = cytotoxicity in OVCAR8 ovarian cancer cells, dose response, PAX8 project, cell-based, plate reader, dry powder samples (AID 743197); type: functional; conditions: OVCAR-8
[3] = T. cruzi growth inhibition in host cells, dose response, cell-based, plate reader, dry powder, set 2 (AID 652275); type: functional
HEK293 = experiment: HEK293T cell cytotoxicity, dose response, cytotoxicity control, ATP luminescence, cherry-pick samples (AID 687005); type: functional, cell-based; conditions: Homo sapiens;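 also: cells exposed to compound for 48 hours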
[4] = HEK293 Cytotoxicity Assay Measured in Cell-Based System Using Plate Reader - 7071-01_Inhibitor_Dose_CherryPick_Activity_Set2.; type: functional
[5] = molecular target: Potassium channel subfamily K member 9 (Homo sapiens, UniProt Q9NPC2); experiment: TASK3 (KCNK9) channel inhibitors, thallium flux, SAR follow-up, selectivity assay for TASK1 inhibitor project, cell-based, FluxOR thallium flux, concentration-response (AID 652211); type: functional;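 also: potency is for inhibitors of the channel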
Sequence of Potassium channel subfamily K member 9 (Q9NPC2 whole entry): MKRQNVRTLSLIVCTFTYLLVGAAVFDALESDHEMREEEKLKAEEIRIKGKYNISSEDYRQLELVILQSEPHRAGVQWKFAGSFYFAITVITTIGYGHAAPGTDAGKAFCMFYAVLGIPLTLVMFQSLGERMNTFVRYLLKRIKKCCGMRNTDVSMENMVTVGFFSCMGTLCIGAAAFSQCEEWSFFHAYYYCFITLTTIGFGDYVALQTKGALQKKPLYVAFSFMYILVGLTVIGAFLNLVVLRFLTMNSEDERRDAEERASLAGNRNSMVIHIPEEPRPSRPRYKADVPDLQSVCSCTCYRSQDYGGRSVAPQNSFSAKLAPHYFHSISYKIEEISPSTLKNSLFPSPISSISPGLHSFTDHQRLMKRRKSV

[6] = molecular target: Potassium channel subfamily K member 3 (Homo sapiens, UniProt O14649); experiment: TASK1 (KCNK3) potassium channel inhibitors, SAR follow-up, CHO cells, FluxOR thallium flux (AID 652212); type: functional
Sequence of Potassium channel subfamily K member 3 (O14649 whole entry): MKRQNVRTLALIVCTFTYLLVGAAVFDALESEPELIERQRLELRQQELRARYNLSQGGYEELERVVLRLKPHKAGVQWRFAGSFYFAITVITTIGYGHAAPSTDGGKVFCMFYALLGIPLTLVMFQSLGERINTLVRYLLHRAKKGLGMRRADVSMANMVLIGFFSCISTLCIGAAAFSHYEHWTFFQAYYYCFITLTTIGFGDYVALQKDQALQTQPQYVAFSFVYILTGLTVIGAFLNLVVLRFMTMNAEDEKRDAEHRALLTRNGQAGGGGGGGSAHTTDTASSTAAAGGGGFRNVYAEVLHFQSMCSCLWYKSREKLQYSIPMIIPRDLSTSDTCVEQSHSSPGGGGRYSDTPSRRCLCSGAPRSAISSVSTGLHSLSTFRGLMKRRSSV

[7] = HEp-2 cell cytotoxicity, dose response, cytotoxicity control for RSV inhibitor project, HTS (AID 2410); type: functional; conditions: human respiratory syncytial virus
[8] = inhibitors of CMV-promoter luciferase reporter, dose response, counter-screen for Pax8 inhibitor project, cell-based, HEK293, luminescence, dry powder (AID 743020); type: functional
[9] = molecular target: Eukaryotic translation initiation factor 4E (Mus musculus, UniProt P63073); experiment: eIF4E–eIF4G protein interaction inhibitors, dose response, biochemical, TR-FRET (AID 855); type: functional;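 also: potency for disrupting eIF4E binding to eIF4GI seen as loss of FRET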
Sequence of Eukaryotic translation initiation factor 4E (P63073 whole entry): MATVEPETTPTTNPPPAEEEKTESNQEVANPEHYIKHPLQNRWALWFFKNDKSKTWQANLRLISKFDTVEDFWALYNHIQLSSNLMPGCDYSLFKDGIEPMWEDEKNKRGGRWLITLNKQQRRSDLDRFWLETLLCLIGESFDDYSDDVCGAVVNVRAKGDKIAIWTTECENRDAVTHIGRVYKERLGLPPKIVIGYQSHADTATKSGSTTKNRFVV

[10] = inhibitors of PGC1a acetylation in cells, dose response, cell-based, cherry-picked samples (AID 720514); type: functional;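 also: potency may reflect raised or lowered acetylation signal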
Protein Wnt-3a = Protein Wnt-3a (Mus musculus, UniProt P27467); experiment: SAR analysis of small molecule antagonists of Gli-SUFU in a Wnt3a luminescent reporter assay.; type: functional
Sequence of Protein Wnt-3a (P27467 whole entry): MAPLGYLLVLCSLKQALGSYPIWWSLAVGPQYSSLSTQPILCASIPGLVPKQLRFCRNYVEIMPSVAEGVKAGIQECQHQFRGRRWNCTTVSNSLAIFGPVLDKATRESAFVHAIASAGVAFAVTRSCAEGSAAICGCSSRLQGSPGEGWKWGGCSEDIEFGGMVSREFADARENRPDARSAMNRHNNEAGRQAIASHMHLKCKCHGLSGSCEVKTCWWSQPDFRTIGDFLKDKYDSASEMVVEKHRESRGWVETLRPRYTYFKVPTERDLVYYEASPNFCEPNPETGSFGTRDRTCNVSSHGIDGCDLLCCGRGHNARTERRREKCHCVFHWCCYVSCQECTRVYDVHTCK

[11] = Late stage assay provider results from the probe development effort to identify selective inhibitors of heat shock protein 90 (HSP90): Absorbance-based cell proliferation assay in SKBR3 cells.; type: functional; conditions: SK-BR-3
[12] = Late stage assay provider results from the probe development effort to identify selective inhibitors of heat shock protein 90 (HSP90): Absorbance-based cell proliferation assay in MCF7 cells.; type: functional
[13] = CFTR ΔF508 corrector activity in bronchial cells, dose response, human bronchial epithelial cells, plate reader, cherry-pick, two tests (AID 743267); type: functional, cell-based

Compound: C[C@H]1CN([C@@H](C)CO)C(=O)c2cccc(NC(=O)Nc3ccc(C(F)(F)F)cc3)c2O[C@H]1CN(C)C(=O)NC1CCCCC1
AC50 [1]: 11.9 µM (active)
AC50 [2]: > 70 µM (inactive)

Compound: CC(C)N1C[C@@H](CN(C)CCc2ccc(Cl)cc2)Oc2c(NC(=O)c3ccncc3)cccc2C1=O
AC50 [3]: 0.000332 µM (active)

Compound: C[C@H]1CN([C@@H](C)CO)S(=O)(=O)c2ccc(Br)cc2O[C@H]1CN(C)S(=O)(=O)c1ccccc1F
AC50 (HEK293): 37.9 µM (active)
AC50 [4]: 37.9 µM (active)

IC50 [5]: 0.8 µM (active)
IC50 [6]: 0.114 µM (active)
Compound: CCOc1ccccc1NC(=O)c1cccc(NC(=O)c2ccccc2OC(F)(F)F)c1

Compound: Cc1nn(CCO)c2nc(-c3cccs3)cc(C(F)(F)F)c12
CC50 [7]: > 50 µM (active)
AC50 [8]: 26.3 µM (active)

Compound: COCCSc1ccccc1C(=O)Nc1cc(C)on1
IC50 [9]: > 64 µM (inactive)
AC50 [10]: 1.06 µM (active)

IC50 (Protein Wnt-3a): > 21.8 µM (inactive)
Compound: O=C(Nc1cc(N2CCCCC2)ncn1)c1cc2ccccc2s1

Compound: COc1ccc(CCN/C=C2/C=C(Br)C(=O)OC2=O)cc1
IC50 [11]: 5.7 µM (active)
IC50 [12]: 1.8 µM (active)

Compound: COc1cccc(-c2cc3nc(-c4ccccc4)cc(O)n3n2)c1
AC50 [13]: 2.35 µM (active)
